Test system: MDA-MB-231 cells
Assay: RPPA (reverse phase protein array)
Format: cell-based, human
Protocol: RPPA analysis was performed by MD Anderson Cancer Center RPPA core facility.
Examination of the Molecular Signaling Events) and/or Downstream Pathways Responsible for the Migration and Invasion Effects Observed by Exemplary Compound Treatment. To pinpoint these observations to a molecular signaling event or specific downstream pathway, reverse phase protein array (RPPA) analysis was performed (Table 4).

## CNC(=O)c1ccc(Nc2ncc(C(F)(F)F)c(NCc3nccnc3N(C)S(C)(=O)=O)n2)cc1 [Defactinib, defactinib, reference compound]
1000nM
  rel. Protein level, Merlin: 99.3%
  rel. Protein level, Mnk1: 97.5%
  rel. Protein level, Myosin-11: 100.9%
  rel. Protein level, Myosin-IIa_pS1943: 108.6%
  rel. Protein level, Myt1: 94.5%
  rel. Protein level, N-Cadherin: 107.8%
  rel. Protein level, N-Ras: 93.7%
  rel. Protein level, NAPSIN-A: 99.4%
  rel. Protein level, NDRG1_pT346: 103.5%
  rel. Protein level, NDUFB4: 96.3%
  rel. Protein level, NF-kB-p65_pS536: 105.0%
  rel. Protein level, Notch1: 96.2%
  rel. Protein level, Notch3: 105.9%
  rel. Protein level, Oct-4: 100.5%
  rel. Protein level, P-Cadherin: 104.3%
  rel. Protein level, PAI-1: 106.1%
  rel. Protein level, PAICS: 98.7%
  rel. Protein level, PAK1: 107.0%
  rel. Protein level, PAK4: 95.5%
  rel. Protein level, PAR: 135.9%
  rel. Protein level, PARP: 98.0%
  rel. Protein level, PCNA: 88.7%
  rel. Protein level, PD-1: 107.0%
  rel. Protein level, PD-L1: 92.6%
  rel. Protein level, PDGFR-b: 138.5%
  rel. Protein level, PDHK1: 102.5%
  rel. Protein level, PDK1: 99.8%
  rel. Protein level, PDK1_pS241: 97.4%
  rel. Protein level, PEA-15: 98.7%
  rel. Protein level, PEA-15_pS116: 97.0%
  rel. Protein level, PI3K-p85: 100.0%
  rel. Protein level, PI3K-p110-a: 103.7%
  rel. Protein level, PI3K-p110-b: 98.5%
  rel. Protein level, PKA-a: 99.6%
  rel. Protein level, PKC-b-II_pS660: 98.6%
  rel. Protein level, PKC-delta_pS664: 100.9%
  rel. Protein level, PKCa: 110.1%
  rel. Protein level, PKM2: 106.2%
  rel. Protein level, PLC-gamma2_pY759: 97.2%
  rel. Protein level, PLK1: 82.1%
  rel. Protein level, PMS2: 98.6%
  rel. Protein level, PR: 100.3%
  rel. Protein level, PRAS40: 98.3%
  rel. Protein level, PRAS40_pT246: 90.7%
  rel. Protein level, PREX1: 105.2%
  rel. Protein level, PTEN: 108.6%
  rel. Protein level, Paxillin: 105.5%
  rel. Protein level, Pdcd4: 117.5%
  rel. Protein level, Porin: 95.2%
  rel. Protein level, RBM15: 103.9%
  rel. Protein level, RIP: 103.7%
  rel. Protein level, RPA32: 96.8%
  rel. Protein level, RPA32_pS4-S8: 93.9%
  rel. Protein level, RSK: 104.4%
  rel. Protein level, Rab11: 101.7%
  rel. Protein level, Rab25: 97.8%
  rel. Protein level, Rad50: 104.7%
  rel. Protein level, Rad51: 102.1%
  rel. Protein level, Raptor: 98.9%
  rel. Protein level, Rb: 93.9%
  rel. Protein level, Rb_pS807_S811: 84.3%
  rel. Protein level, Rheb: 91.7%
  rel. Protein level, Rictor: 111.8%
  rel. Protein level, Rictor_pT1135: 90.0%
  rel. Protein level, S6: 102.7%
  rel. Protein level, S6_pS235_S236: 50.9%
  rel. Protein level, S6_pS240_S244: 49.1%
  rel. Protein level, b-Actin: 101.1%
  rel. Protein level, b-Catenin: 100.0%
  rel. Protein level, b-Catenin_pT41_S45: 98.3%
  rel. Protein level, c-Abl: 109.1%
  rel. Protein level, c-IAP2: 94.3%
  rel. Protein level, c-Jun_pS73: 92.7%
  rel. Protein level, c-Kit: 101.5%
  rel. Protein level, c-Met_pY1234_Y1235: 98.9%
  rel. Protein level, c-Myc: 95.9%
  rel. Protein level, cdc2_pY15: 90.1%
  rel. Protein level, cdc25C: 98.2%
  rel. Protein level, eEF2: 94.8%
  rel. Protein level, eEF2K: 116.4%
  rel. Protein level, eIF4E: 105.5%
  rel. Protein level, eIF4E_pS209: 95.7%
  rel. Protein level, eIF4G: 95.8%
  rel. Protein level, mTOR: 92.1%
  rel. Protein level, mTOR_pS2448: 88.3%
  rel. Protein level, p21: 100.5%
  rel. Protein level, p27-Kip-1: 96.7%
  rel. Protein level, p27_pT198: 96.4%
  rel. Protein level, p38-MAPK: 94.3%
  rel. Protein level, p38_pT180_Y182: 100.6%
  rel. Protein level, p44-42-MAPK: 108.2%
  rel. Protein level, p53: 93.7%
  rel. Protein level, p70-S6K1: 111.0%
  rel. Protein level, p70-S6K_pT389: 95.5%
  rel. Protein level, p90RSK_pT573: 98.9%
Antibody SCD, 1000nM, n = 2
  rel. Protein level [%], SCD: 98.9%
Antibody SDHA, 1000nM, n = 2
  rel. Protein level [%], SDHA: 103.8%
Antibody SF2, 1000nM, n = 2
  rel. Protein level [%], SF2: 95.8%
Antibody SHP-2_pY542, 1000nM, n = 2
  rel. Protein level [%], SHP-2_pY542: 97.2%
Antibody SLC1A5, 1000nM, n = 2
  rel. Protein level [%], SLC1A5: 111.6%
Antibody SOD1-, 1000nM, n = 2
  rel. Protein level [%], SOD1-: 97.7%
Antibody SOD2, 1000nM, n = 2
  rel. Protein level [%], SOD2: 106.0%
Antibody STING, 1000nM, n = 2
  rel. Protein level [%], STING: 135.4%
Antibody Shc_pY317, 1000nM, n = 2
  rel. Protein level [%], Shc_pY317: 104.3%
Antibody Slfn11, 1000nM, n = 2
  rel. Protein level [%], Slfn11: 95.9%
Antibody Smac, 1000nM, n = 2
  rel. Protein level [%], Smac: 99.9%
Antibody Smad1, 1000nM, n = 2
  rel. Protein level [%], Smad1: 97.8%
Antibody Smad3, 1000nM, n = 2
  rel. Protein level [%], Smad3: 102.3%
Antibody Smad4, 1000nM, n = 2
  rel. Protein level [%], Smad4: 95.2%
Antibody Snail, 1000nM, n = 2
  rel. Protein level [%], Snail: 101.3%
Antibody Sox2, 1000nM, n = 2
  rel. Protein level [%], Sox2: 100.5%
Antibody Src, 1000nM, n = 2
  rel. Protein level [%], Src: 103.9%
Antibody Src_pY419, 1000nM, n = 2
  rel. Protein level [%], Src_pY419: 99.6%
Antibody Src_pY527, 1000nM, n = 2
  rel. Protein level [%], Src_pY527: 93.7%
Antibody Stat3, 1000nM, n = 2
  rel. Protein level [%], Stat3: 92.9%
Antibody Stat3_pY705, 1000nM, n = 2
  rel. Protein level [%], Stat3_pY705: 100.5%
Antibody Stat5a, 1000nM, n = 2
  rel. Protein level [%], Stat5a: 108.2%
Antibody Stathmin-1, 1000nM, n = 2
  rel. Protein level [%], Stathmin-1: 99.3%
Antibody Syk, 1000nM, n = 2
  rel. Protein level [%], Syk: 95.8%
Antibody TAZ, 1000nM, n = 2
  rel. Protein level [%], TAZ: 100.5%
Antibody TFAM, 1000nM, n = 2
  rel. Protein level [%], TFAM: 101.4%
Antibody TFRC, 1000nM, n = 2
  rel. Protein level [%], TFRC: 96.3%
Antibody TIGAR, 1000nM, n = 2
  rel. Protein level [%], TIGAR: 100.5%
Antibody TRIM25, 1000nM, n = 2
  rel. Protein level [%], TRIM25: 99.8%
Antibody TSC1, 1000nM, n = 2
  rel. Protein level [%], TSC1: 102.5%
Antibody TTF1, 1000nM, n = 2
  rel. Protein level [%], TTF1: 95.4%
Antibody TUFM, 1000nM, n = 2
  rel. Protein level [%], TUFM: 98.4%
Antibody TWIST, 1000nM, n = 2
  rel. Protein level [%], TWIST: 97.7%
Antibody Tau, 1000nM, n = 2
  rel. Protein level [%], Tau: 102.9%
Antibody Transglutaminase, 1000nM, n = 2
  rel. Protein level [%], Transglutaminase: 93.5%
Antibody Tuberin, 1000nM, n = 2
  rel. Protein level [%], Tuberin: 101.7%
Antibody Tuberin_pT1462, 1000nM, n = 2
  rel. Protein level [%], Tuberin_pT1462: 93.6%
Antibody Tyro3, 1000nM, n = 2
  rel. Protein level [%], Tyro3: 98.5%
Antibody U-Histone-H2B, 1000nM, n = 2
  rel. Protein level [%], U-Histone-H2B: 113.8%
Antibody UBAC1, 1000nM, n = 2
  rel. Protein level [%], UBAC1: 99.7%
Antibody UGT1A, 1000nM, n = 2
  rel. Protein level [%], UGT1A: 98.6%
Antibody ULK1_pS757, 1000nM, n = 2
  rel. Protein level [%], ULK1_pS757: 102.1%
Antibody VASP, 1000nM, n = 2
  rel. Protein level [%], VASP: 100.5%
Antibody VEGFR-2, 1000nM, n = 2
  rel. Protein level [%], VEGFR-2: 93.5%
Antibody VHL-EPPK1, 1000nM, n = 2
  rel. Protein level [%], VHL-EPPK1: 88.7%
Antibody WIPI1, 1000nM, n = 2
  rel. Protein level [%], WIPI1: 102.3%
Antibody WIPI2, 1000nM, n = 2
  rel. Protein level [%], WIPI2: 106.2%
Antibody Wee1, 1000nM, n = 2
  rel. Protein level [%], Wee1: 95.3%
Antibody Wee1_pS642, 1000nM, n = 2
  rel. Protein level [%], Wee1_pS642: 95.2%
Antibody XBP-1, 1000nM, n = 2
  rel. Protein level [%], XBP-1: 89.5%
Antibody XPA, 1000nM, n = 2
  rel. Protein level [%], XPA: 83.5%
Antibody XPF, 1000nM, n = 2
  rel. Protein level [%], XPF: 100.5%
Antibody XRCC1, 1000nM, n = 2
  rel. Protein level [%], XRCC1: 102.3%
Antibody YAP, 1000nM, n = 2
  rel. Protein level [%], YAP: 93.7%
Antibody YAP_pS127, 1000nM, n = 2
  rel. Protein level [%], YAP_pS127: 103.1%
Antibody YB1_pS102, 1000nM, n = 2
  rel. Protein level [%], YB1_pS102: 82.7%
Antibody ZAP-70, 1000nM, n = 2
  rel. Protein level [%], ZAP-70: 95.1%

Source: US20200038513A1, “MODULATORS OF FAK PROTEOLYSIS AND ASSOCIATED METHODS OF USE” (ARVINAS OPERATIONS, INC., priority 2018, published 2020)
